Experimental findings from US20200124597A1, “INDICATOR RELEASE SYSTEM FOR THE DETECTION OF AN ANALYTE IN A FOODSTUFF, TEST STRIP THEREFOR, AND ANALYSIS METHOD” (Bundesrepublik Deutschland, vertreten durch die …, priority 2017, published 2020) are described below.

Series [1] deals with rabbit antisera against the hapten sulfathiazole (STZ), capping antibody. Kind of series: Biphasic extraction assay: fluorescence of CHCl3 phase after dye extraction from M7-A1@B suspensions in raw milk. Type of series: binding. The procedure:
(§1) Capping of the material was performed following the same conditions as for the preparation of M4-A1 @B, but in this case 1 mg of the mesoporous silica was suspended in 450 μL of PBS containing 360 ppm of BODIPY-PEG and 2 μL of the serum for 30 min. Thereafter, 50 μL of BSA solution (5%) were added to the suspensions and stirred for another 1.5 h. […] Before centrifuging the suspension in the last washing cycle, it was divided into 10 fractions, which were dried separately for 1 h in the vacuum at room temperature and stored in the fridge, yielding 10 fractions of ca. 100 μg of M7-A1@B.
Next, the effect of the concentration of STZ and SPY was studied. For this purpose, we repeated the procedure but added different concentrations of the corresponding sulfonamide into each fraction and took an aliquot from the chloroform phase after 10 min of reaction (FIG. 10). In this case, milk stored in the fridge for 5 and 7 d was used. It is obvious that a highly sensitive response could be found in both cases, with an LOQ of 0.5±0.1 ppb and an IC50 of 0.8±0.1 ppb for STZ. For SPY, both the fluorescence increase and the sensitivity are lower (LOQ: 4.6±2.2 ppb, IC50: 16.2±6.9 ppb).
The red points were classified as outliers and not considered in the fit (N=2, only one repetition shown).
The sensitivity could further be improved by increasing the number of washing cycles of the material before use, although the fluorescence enhancement is lower due to partial dye removal during continued washing. […] Furthermore, the amount of dye released in the working range of the assay at lower STZ concentrations (100 ppt) is at least 100 times higher, preferably 200-times higher than that of antibody displaced, decreasing to 80-times at concentrations higher than 50 ppb, which is a remarkable sign of signal amplification especially in the desired low-concentration range.

The test system is the same in series [2]. Nature of the series: Lateral flow test strips spotted with M4-A1@B, developed in raw milk spiked with STZ, fluorescence reader. Type of series: binding. The following applies: M4-A1@B on nitrocellulose strips, ratio FB/(FA+FB) with lateral flow reader, data considerably noisy. From the text:
As explained above, after development the strips show two different zones, a first one (zone A) at which the sensing material (indicator reservoir) has been deposited, and a second one (zone B) in which the released dye is collected that could travel with the solvent front (see FIGS. 2, 7).
In case of absence of a sulfonamide, the second zone (zone B in FIG. 7) should show minimum signal. In case of presence, the fluorescence in that zone should correlate with analyte concentration. The amount of dye released can be quantified with a fluorescence reader with appropriate excitation and emission wavelengths or by taking pictures under proper light excitation conditions. Strips were prepared using a Hi-Flow nitrocellulose paper from Millipore®. […]
Afterwards, the strips were dipped into 150 μL of raw milk spiked with various amounts of STZ, developed and let dried at room temperature. […] Afterwards, the fluorescence histograms were registered with a lateral flow reader and a home-made housing equipped with an LED (λexc 505 nm) as excitation source and filters (532 nm cut-off and 550 nm long-pass) that can be fitted to a conventional digital camera. […] FIG. 6 c) (luminance of dye released in second zone and FIG. 6 d) (ratio of luminance) allows to compare the reader results with those obtained by extracting the luminance from images taken with a camera. […]

Series [3] shares this test system. Kind of series: Fluorescence of supernatants of M7-A1@B (BODIPY-PEG-loaded, antibody-gated) suspensions in milk. The settings on record: M7-A1@B suspension in milk, 10 min, 535 nm (λexc=515 nm), logistic fit. The format is binding. The procedure:
as §1
In an attempt to avoid the extraction process, and with the aim to compare the effect of different dyes to M4-A1 @B, respectively, first of all the material M7-A1@B was tested in absence and in presence of several amounts of STZ following similar a procedure as explained previously. For that purpose, two independent experiments were performed, using in one case milk provided from FOSS stored in the fridge (6 d) and fresh milk from Poland (1 d in the fridge). […] Then, 20 μL of STZ solutions of different concentrations were added to the rest of the fractions (80 μL), the vials were shaken in the thermomixer at 800 rpm for 10 min, centrifuged and the fluorescence of the supernatants measured at 535 nm with λexc=515 nm (FIG. 9).

For series [4] the test system is unchanged. Kind of series: Fluorescence of supernatants of M4-A1@B (SRB-loaded, antibody-gated MCM-41) suspensions after adding STZ prepared in milk. The format is binding. The settings on record: M4-A1@B suspension in PBS, STZ solutions prepared in milk, λem=585 nm, λexc=560 nm, logistic fit. The procedure:
The pores of the particles were filled with the dye sulforhodamine B (SRB). With the aim of loading the maximum amount of dye into the MCM-41 scaffold, a solution of the dye SRB sodium salt (2 mmol L^−1) was prepared in acetonitrile. Then, 2 portions of 12.0 mL were added to 300 mg of each MCM-41 nano- or microparticle material, yielding a suspension with a concentration of 0.8 mmol dye (g solid)^−1. The suspension was stirred for 24 h at room temperature. Two fractions of each type of material (2×40 mL) were centrifuged (5 min at 6000 rpm) and concentrated in a final volume of 1.5 mL. Thereafter, volumes of 0.14 mL and 0.7 mL of hapten solution (0.02 and 0.01 mmol) in DMF were added, arriving at final suspensions of 0.2 and 0.1 mmol (g solid)^−1. The resulting suspensions were stirred for 5.5 h at room temperature. Finally, the suspensions were centrifuged (5 min at 6000 rpm), and the solids obtained were washed with acetonitrile (0.75 mL), isolated by centrifugation, and dried at 35° C. in vacuum during 12 h. […]
The fluorescence enhancement caused by STZ at different concentrations was assessed in milk as well. […] Then, 6 μL of STZ solutions of different concentrations were added to the other fractions, the vials shaken by hand for 20 s and centrifuged before measuring the fluorescence of the supernatants in a fluorometer (λem=585 nm, λexc=560 nm).

Series [5] is described as follows: Dye partitioning from water/milk to CHCl3. The format is physicochemical. The following applies: phase transfer from water/milk to CHCl3. On the procedure:
as §1

Setting [6] is: M7-A1@B in raw milk, CHCl3 phase, 10 min reaction, 538 nm (λexc=515 nm).
The mark [7] stands for this setting: M7-A1@B, increased number of washing cycles of the material before use.

On to `Nc1ccc(S(=O)(=O)Nc2ccccn2)cc1` [SPY, sulfapyridine], for which, in series [1] (setting [6]), the IC50 is given as 16.2±6.9 ppb and the LOQ is on record as 4.6±2.2 ppb. Moreover, in series [1] (setting [7]), the IC50 was 4.4±1.7 ppb and the LOQ was determined as 0.78±0.38 ppb.
On to `Nc1ccc(S(=O)(=O)Nc2nccs2)cc1` [STZ, sulfathiazole], for which the IC50 entry in series [2] is “below 1 ppb”; in series [3] it was 1.5±1.4 ppb; in series [4] it was 172±12 ppb; in series [1] (setting [6]) it was 0.8±0.1 ppb; in series [1] (setting [7]), 0.28±0.15 ppb. The “limit of quantification (LOQ)” value in series [3] was found to be 65±18 ppt. In addition, the “IC20, i.e. limit of quantification (LOQ)” value in series [4] is given as 87±8 ppb. The LOQ in series [1] (setting [6]) came to 0.5±0.1 ppb; in series [1] (setting [7]), 0.02±0.01 ppb.
`CCN(CC)c1ccc2c(-c3ccc(S(=O)(=O)O)cc3S(=O)(=O)[O-])c3ccc(=[N+](CC)CC)cc-3oc2c1` [sulforhodamine B]: the dye partitioning coefficient result in series [5] was “too low to undergo efficient phase transfer”.
